Assay results: publication PMC4170737 (Bioorganic & medicinal chemistry letters, 2014)

Legend:
[1] = Plasma stability, mouse
[2] = Plasma protein binding, mouse
[3] = Plasma protein binding, human
[4] = Hepatic microsome stability, human; details: for Hepatic Microsome Stability: human (first or only value of cell)
[5] = Hepatic microsome stability, mouse; details: for Hepatic Microsome Stability: mouse (first or only value of cell)
[6] = Plasma stability, human
[7] = PAMPA permeability
[8] = biological target: T1, human PMM2 (Homo sapiens, UniProt O15305)
T1 sequence (O15305 1-246): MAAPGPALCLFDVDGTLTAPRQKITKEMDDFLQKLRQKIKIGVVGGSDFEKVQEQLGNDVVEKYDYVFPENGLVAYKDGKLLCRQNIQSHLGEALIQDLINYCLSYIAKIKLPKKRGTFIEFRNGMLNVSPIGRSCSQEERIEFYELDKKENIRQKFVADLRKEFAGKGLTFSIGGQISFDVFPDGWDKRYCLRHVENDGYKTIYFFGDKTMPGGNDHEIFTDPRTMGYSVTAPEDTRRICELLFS

[9] = biological target: T2, human PMI (phosphomannose isomerase) (Homo sapiens, UniProt P34949)
T2 sequence (P34949 1-423): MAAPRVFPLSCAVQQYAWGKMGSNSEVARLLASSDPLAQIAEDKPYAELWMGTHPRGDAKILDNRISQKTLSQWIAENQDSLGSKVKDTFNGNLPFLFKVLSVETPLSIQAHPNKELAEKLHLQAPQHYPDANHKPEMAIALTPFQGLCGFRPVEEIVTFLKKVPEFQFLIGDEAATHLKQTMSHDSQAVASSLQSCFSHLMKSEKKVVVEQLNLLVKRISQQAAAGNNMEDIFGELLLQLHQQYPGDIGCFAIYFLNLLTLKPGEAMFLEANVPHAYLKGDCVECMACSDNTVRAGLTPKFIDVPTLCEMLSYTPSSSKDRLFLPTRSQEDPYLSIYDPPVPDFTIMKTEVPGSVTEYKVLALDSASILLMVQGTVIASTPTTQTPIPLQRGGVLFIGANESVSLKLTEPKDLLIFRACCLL

[10] = biological target: T1, human PMM2; experiment: biochemical
[11] = biological target: T3, TNAP (Homo sapiens, UniProt P05186)
T3 sequence (P05186 18-502 limits assumed): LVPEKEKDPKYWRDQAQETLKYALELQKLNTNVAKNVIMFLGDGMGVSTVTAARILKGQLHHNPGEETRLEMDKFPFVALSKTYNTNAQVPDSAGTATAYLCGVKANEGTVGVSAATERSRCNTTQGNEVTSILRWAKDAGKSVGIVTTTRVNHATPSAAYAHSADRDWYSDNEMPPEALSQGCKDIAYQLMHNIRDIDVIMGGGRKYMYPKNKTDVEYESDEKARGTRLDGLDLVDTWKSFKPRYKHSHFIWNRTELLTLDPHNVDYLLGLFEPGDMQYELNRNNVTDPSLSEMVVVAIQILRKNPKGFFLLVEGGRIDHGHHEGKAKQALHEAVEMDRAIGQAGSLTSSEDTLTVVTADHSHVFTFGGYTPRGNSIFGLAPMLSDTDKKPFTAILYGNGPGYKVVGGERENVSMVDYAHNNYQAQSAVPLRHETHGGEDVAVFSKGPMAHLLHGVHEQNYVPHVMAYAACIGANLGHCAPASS

[12] = tested on: mevalonate pathway in streptococcus pneumonia; details: ref PubChem AID1028; cited from earlier work
[13] = 1× PBS, pH 7.4 alone, mouse column (second value of cell)
[14] = mouse plasma: 1× PBS, pH 7.4, 1:1 (first value of cell)
[15] = 1× PBS, pH 7.4 alone, human column (second value of cell)
[16] = human plasma: 1× PBS, pH 7.4, 1:1 (first value of cell)

SMILES	Plasma Stability [1, 13] [% Remaining at 3hrs]	Plasma Stability [1, 14] [% Remaining at 3hrs]	Plasma Protein Binding ([2]; 1 μM) [% Bound]	Plasma Protein Binding ([2]; 10 μM) [% Bound]	Plasma Protein Binding ([3]; 10 μM)	Hepatic Microsome Stability [4] [% Remaining at 1hr]	Hepatic Microsome Stability [5] [% Remaining at 1hr]	Plasma Stability [6, 15] [% Remaining at 3hrs]	Plasma Stability [6, 16] [% Remaining at 3hrs]	Plasma Protein Binding ([3]; 1 μM) [% Bound]	Papp ([7]; PAMPA Permeability, donor pH 5.0, acceptor pH 7.4) [×10⁻⁶ cm/s]	Papp ([7]; PAMPA Permeability, donor pH 6.2, acceptor pH 7.4) [×10⁻⁶ cm/s]	Papp ([7]; pH 7.4, PAMPA Permeability, donor pH 7.4, acceptor pH 7.4) [×10⁻⁶ cm/s]	Hepatic Microsome Stability (NADPH minus) ([4]; human, NADPH minus (second value of cell)) [% Remaining at 1hr]	Hepatic Microsome Stability (NADPH minus) ([5]; mouse, NADPH minus (second value of cell)) [% Remaining at 1hr]	Activity at PMM2 (in words) [8]	Activity at PMI (in words) [9]	IC50 [10] [µM]	Inhibitory activity against TNAP (in words) [11]	Activity in screen for inhibitors of the mevalonate pathway (in words) [12]
CN(C)S(=O)(=O)c1cccc(-n2sc3ccccc3c2=O)c1 [Compound 2s]	40.0	65.3	35.6	34.1	n.d. / 56.5 % Bound	72.4	100	32.3	11.4											
COC(=O)c1cccc(-n2sc3ccccc3c2=O)c1 [Compound 2o]	55.2	59.6	48.0	37.6	57.3 % Bound	72.4	45.9	49.3	15.4	41.2	1290	1230	1300	31.5	44.6					
CCOC(=O)c1ccc(-n2sc3ccccc3c2=O)cc1 [Compound 2p]																essentially devoid of activity	essentially devoid of activity			
CCN(CC)S(=O)(=O)c1cccc(-n2sc3ccccc3c2=O)c1 [Compound 2t]																devoid of activity	devoid of activity			
O=C(O)c1cccc(-n2sc3ccccc3c2=O)c1 [Compound 2n]	71.2	100	18.8	30.1	n.d. / 59.4 % Bound	100	100	55.5	50.2							no activity				
O=c1c2ccccc2sn1-c1ccc(F)c(Cl)c1 [Compound 2m]																inactive	inactive			
CN(C)C(=O)c1cccc(-n2sc3ccccc3c2=O)c1 [Compound 2q]	56.9	76.2	48.0	46.7		45.7	56.6	60.0	18.9	41.3						no activity	no activity	> 50	devoid of any significant inhibitory activity	weak activity
